Reference: PubChem BioAssay AID2060908 (Molecular Pharmacology Branch, DTP, NCI, 2025)

System: 186277-243-T-J2-PDC complex spheroids, viability
Assay: Anticancer human tumor 186277-243-T-J2-PDC patient-derived colon adenocarcinoma cell line growth inhibition [RAS]
Conditions: for IC50: curve of first compound; for viability, T/C: stronger effect = lower value
In short: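 Multi-cell-type spheroids: tumor cells plus HUVEC endothelial cells and mesenchymal stem cells. RAS-pathway inhibitors were combined with targeted agents, each dosed in half-log steps down from clinical Cmax, or from 10 microM when Cmax was unknown.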

[1] = second compound 0.000949 µM, first compound 0.0316 µM
[2] = second compound 0.000949 µM, first compound 0.1 µM
[3] = second compound 0.000949 µM, first compound 0.316 µM
[4] = second compound 0.000949 µM, first compound 1 µM
[5] = second compound 0.000949 µM, first compound 3.16 µM
[6] = second compound 0.000949 µM, first compound 10 µM
[7] = second compound 0.003 µM, first compound 0.0316 µM
[8] = second compound 0.003 µM, first compound 0.1 µM
[9] = second compound 0.003 µM, first compound 0.316 µM
[10] = second compound 0.003 µM, first compound 1 µM
[11] = second compound 0.003 µM, first compound 3.16 µM
[12] = second compound 0.003 µM, first compound 10 µM
[13] = second compound 0.00949 µM, first compound 0.0316 µM
[14] = second compound 0.00949 µM, first compound 0.1 µM
[15] = second compound 0.00949 µM, first compound 0.316 µM
[16] = second compound 0.00949 µM, first compound 1 µM
[17] = second compound 0.00949 µM, first compound 3.16 µM
[18] = second compound 0.00949 µM, first compound 10 µM
[19] = second compound 0.03 µM, first compound 0.0316 µM
[20] = second compound 0.03 µM, first compound 0.1 µM
[21] = second compound 0.03 µM, first compound 0.316 µM
[22] = second compound 0.03 µM, first compound 1 µM
[23] = second compound 0.03 µM, first compound 3.16 µM
[24] = second compound 0.03 µM, first compound 10 µM
[25] = second compound 0.0949 µM, first compound 0.0316 µM
[26] = second compound 0.0949 µM, first compound 0.1 µM
[27] = second compound 0.0949 µM, first compound 0.316 µM
[28] = second compound 0.0949 µM, first compound 1 µM
[29] = second compound 0.0949 µM, first compound 3.16 µM
[30] = second compound 0.0949 µM, first compound 10 µM
[31] = second compound 0.3 µM, first compound 0.0316 µM
[32] = second compound 0.3 µM, first compound 0.1 µM
[33] = second compound 0.3 µM, first compound 0.316 µM
[34] = second compound 0.3 µM, first compound 1 µM
[35] = second compound 0.3 µM, first compound 3.16 µM
[36] = second compound 0.3 µM, first compound 10 µM
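Also: spheroids exposed to compounds for 7 days before viability read.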

What does the source list for `CC1(O)CCCC1n1c(=O)c(C(F)F)cc2cnc(NC3CCN(S(C)(=O)=O)CC3)nc21` (stereo unspecified) + CCn1c(-c2cccnc2C(C)OC)c2c3cc(ccc31)N1CCOC(CC(NC(=O)C(C(C)C)N(C)C(=O)C3(F)CCN(C(=O)C#CC(C)(C)N(C)C)CC3)C(=O)N3CCCC(N3)C(=O)OCC(C)(C)C2)C1?
IC50 (second compound 0.000949 µM): 4.33 µM; IC50 (second compound 0.003 µM): 4.48 µM; IC50 (second compound 0.00949 µM): 4.38 µM; IC50 (second compound 0.03 µM): 4.35 µM; IC50 (second compound 0.0949 µM): 3.59 µM; IC50 (second compound 0.3 µM): 1.17 µM; viability, T/C [1]: 129%; viability, T/C [2]: 113%; viability, T/C [3]: 122%; viability, T/C [4]: 86.7%; viability, T/C [5]: 74.8%; viability, T/C [6]: 1.88%; viability, T/C [7]: 96.5%; viability, T/C [8]: 122%; viability, T/C [9]: 104%; viability, T/C [10]: 93.2%; viability, T/C [11]: 71.7%; viability, T/C [12]: 2.18%; viability, T/C [13]: 116%; viability, T/C [14]: 116%; viability, T/C [15]: 115%; viability, T/C [16]: 84.3%; viability, T/C [17]: 75.7%; viability, T/C [18]: 2.28%; viability, T/C [19]: 111%; viability, T/C [20]: 117%; viability, T/C [21]: 108%; viability, T/C [22]: 80.3%; viability, T/C [23]: 77.2%; viability, T/C [24]: 1.84%; viability, T/C [25]: 108%; viability, T/C [26]: 113%; viability, T/C [27]: 80.9%; viability, T/C [28]: 73.3%; viability, T/C [29]: 69%; viability, T/C [30]: 1.68%; viability, T/C [31]: 114%; viability, T/C [32]: 91.7%; viability, T/C [33]: 56.2%; viability, T/C [34]: 56.8%; viability, T/C [35]: 53.8%; viability, T/C [36]: 0.94%

`CCN1CCN(Cc2ccc(Nc3ncc(F)c(-c4cc(F)c5nc(C)n(C(C)C)c5c4)n3)nc2)CC1` + CCn1c(-c2cccnc2C(C)OC)c2c3cc(ccc31)N1CCOC(CC(NC(=O)C(C(C)C)N(C)C(=O)C3(F)CCN(C(=O)C#CC(C)(C)N(C)C)CC3)C(=O)N3CCCC(N3)C(=O)OCC(C)(C)C2)C1 was tested. Which IC50 (second compound 0.000949 µM) did it give?
Its IC50 is greater than 1 µM.

What about the IC50 (second compound 0.003 µM) of the same compound?
Its IC50 is greater than 1 µM.

What about the IC50 (second compound 0.00949 µM) of the same compound?
Its IC50 is greater than 1 µM.

What about the IC50 (second compound 0.03 µM) of the same compound?
The IC50 was greater than 1 µM.

What about the IC50 (second compound 0.0949 µM) of the same compound?
The IC50 was greater than 1 µM.

And the IC50 (second compound 0.3 µM)?
Its IC50 is greater than 1 µM.

And the viability, T/C (second compound 0.000949 µM, first compound 0.00316 µM)?
The viability, T/C was 123%.

And the viability, T/C (second compound 0.000949 µM, first compound 0.01 µM)?
The viability, T/C was 105%.

And the viability, T/C [1]?
The viability, T/C was 135%.

And the viability, T/C [2]?
The viability, T/C was 140%.

And the viability, T/C [3]?
Its viability, T/C is 184%.

What about the viability, T/C [4] of the same compound?
Its viability, T/C is 126%.

What about the viability, T/C (second compound 0.003 µM, first compound 0.00316 µM) of the same compound?
The viability, T/C was 109%.

And the viability, T/C (second compound 0.003 µM, first compound 0.01 µM)?
Its viability, T/C is 95.8%.

What about the viability, T/C [7] of the same compound?
The viability, T/C was 135%.

And the viability, T/C [8]?
Its viability, T/C is 160%.

And the viability, T/C [9]?
The viability, T/C was 168%.

What about the viability, T/C [10] of the same compound?
The viability, T/C was 128%.

And the viability, T/C (second compound 0.00949 µM, first compound 0.00316 µM)?
The viability, T/C was 85.8%.

What about the viability, T/C (second compound 0.00949 µM, first compound 0.01 µM) of the same compound?
Its viability, T/C is 116%.

And the viability, T/C [13]?
Its viability, T/C is 97.7%.

And the viability, T/C [14]?
The viability, T/C was 162%.

What about the viability, T/C [15] of the same compound?
Its viability, T/C is 180%.

And the viability, T/C [16]?
The viability, T/C was 132%.

And the viability, T/C (second compound 0.03 µM, first compound 0.00316 µM)?
Its viability, T/C is 102%.

What about the viability, T/C (second compound 0.03 µM, first compound 0.01 µM) of the same compound?
Its viability, T/C is 136%.

What about the viability, T/C [19] of the same compound?
The viability, T/C was 135%.

And the viability, T/C [20]?
The viability, T/C was 155%.

And the viability, T/C [21]?
Its viability, T/C is 171%.

What about the viability, T/C [22] of the same compound?
Its viability, T/C is 110%.

And the viability, T/C (second compound 0.0949 µM, first compound 0.00316 µM)?
The viability, T/C was 118%.

What about the viability, T/C (second compound 0.0949 µM, first compound 0.01 µM) of the same compound?
Its viability, T/C is 134%.

What about the viability, T/C [25] of the same compound?
Its viability, T/C is 122%.

What about the viability, T/C [26] of the same compound?
Its viability, T/C is 142%.

And the viability, T/C [27]?
Its viability, T/C is 142%.

What about the viability, T/C [28] of the same compound?
The viability, T/C was 90.7%.

What about the viability, T/C (second compound 0.3 µM, first compound 0.00316 µM) of the same compound?
The viability, T/C was 134%.

And the viability, T/C (second compound 0.3 µM, first compound 0.01 µM)?
Its viability, T/C is 113%.

What about the viability, T/C [31] of the same compound?
The viability, T/C was 123%.

What about the viability, T/C [32] of the same compound?
The viability, T/C was 116%.

And the viability, T/C [33]?
The viability, T/C was 104%.

What about the viability, T/C [34] of the same compound?
The viability, T/C was 58.6%.

Which results are given for `C[C@@H](NC(=O)c1ncnc(N)c1Cl)c1ncc(C(=O)Nc2cc(C(F)(F)F)c(Cl)cn2)s1` + CCn1c(-c2cccnc2C(C)OC)c2c3cc(ccc31)N1CCOC(CC(NC(=O)C(C(C)C)N(C)C(=O)C3(F)CCN(C(=O)C#CC(C)(C)N(C)C)CC3)C(=O)N3CCCC(N3)C(=O)OCC(C)(C)C2)C1?
IC50 (second compound 0.000949 µM): > 10 µM; IC50 (second compound 0.003 µM): > 10 µM; IC50 (second compound 0.00949 µM): > 10 µM; IC50 (second compound 0.03 µM): > 10 µM; IC50 (second compound 0.0949 µM): > 10 µM; IC50 (second compound 0.3 µM): > 10 µM; viability, T/C [1]: 103%; viability, T/C [2]: 85.1%; viability, T/C [3]: 87.7%; viability, T/C [4]: 96.6%; viability, T/C [5]: 104%; viability, T/C [6]: 80.5%; viability, T/C [7]: 91.5%; viability, T/C [8]: 84.5%; viability, T/C [9]: 90.7%; viability, T/C [10]: 90.1%; viability, T/C [11]: 92.9%; viability, T/C [12]: 95.1%; viability, T/C [13]: 101%; viability, T/C [14]: 95.3%; viability, T/C [15]: 93.1%; viability, T/C [16]: 105%; viability, T/C [17]: 94.6%; viability, T/C [18]: 82.6%; viability, T/C [19]: 93.8%; viability, T/C [20]: 95.4%; viability, T/C [21]: 89.2%; viability, T/C [22]: 85.8%; viability, T/C [23]: 95.7%; viability, T/C [24]: 72.5%; viability, T/C [25]: 102%; viability, T/C [26]: 116%; viability, T/C [27]: 104%; viability, T/C [28]: 113%; viability, T/C [29]: 110%; viability, T/C [30]: 76.3%; viability, T/C [31]: 109%; viability, T/C [32]: 120%; viability, T/C [33]: 114%; viability, T/C [34]: 112%; viability, T/C [35]: 103%; viability, T/C [36]: 57%
